Our source for the IC50 values is patent publication EP2208725A1, “Novel specific inhibitors of ubiquitin specific protease 7, the pharmaceutical compositions thereof and their therapeutic applications” (Hybrigenics S.A., priority 2009, dated 2010).

The target of test [1] is T1, UCH-L1 (Homo sapiens, UniProt P09936).
T1 sequence (P09936 1-223): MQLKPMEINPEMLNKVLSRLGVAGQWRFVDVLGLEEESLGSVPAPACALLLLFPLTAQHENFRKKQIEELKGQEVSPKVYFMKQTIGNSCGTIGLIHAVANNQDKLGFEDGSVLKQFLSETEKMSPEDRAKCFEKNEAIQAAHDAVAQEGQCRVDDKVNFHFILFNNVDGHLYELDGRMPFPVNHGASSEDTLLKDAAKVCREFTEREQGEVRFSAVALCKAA
The experiment in a line: UCH-L1 activity assay (Ub-AMC). Type of test: biochemical. As to conditions: 400 nM Ub-AMC, 2.5 nM enzyme; compounds tested from 200 µM to 91 nM; unit inferred; read-out: Inhibition of cysteine protease activities: Uch-L1. How it is done: UCH-L1 was diluted in USP buffer (50 mM Tris HCl; 0.5 mM EDTA; 5 mM DTT; 0.01% Triton X-100; Bovine Serum Albumin 0.05 mg.ml^-1 pH7.6). Compounds stocks (100 mM) were stored at -20°C in DMSO. Compounds were tested at different concentrations: from 200 µM to 91 nM. Reactions were performed as duplicates in Black LJL 96 well plates (HE microplates; Molecular Devices; 20 µl final reaction volume). The substrate concentration for UCH-L1 was 400 nM Ub-AMC (Boston Biochem). The concentration of the enzyme (UCH-L1) in specificity assays was 2.5 nM. The concentrations were determined in order to perform specificity assays under initial velocities at fixed substrate concentration. Compounds were pre-incubated with enzymes for 30 minutes at 25°C. Reactions were initiated by addition of substrate to the plates containing the enzymes (+/- compounds) diluted in assay buffer. Reactions were incubated for 60 minutes at 37°C. Reactions were stopped by adding acetic acid (100 mM final). Readings were performed on a Pherastar Fluorescent Reader (BMG). λ […]. Data (mean values +/- standard deviation) were analyzed as % of control (no compound) and plotted as percentage versus the Log of the compound concentration using GraphPad (Prism). Data were fitted to a sigmoidal model (variable slope).

Test [2] deals with T2, Caspase 3 (Homo sapiens, UniProt P42574).
T2 sequence (P42574 29-175 limits assumed): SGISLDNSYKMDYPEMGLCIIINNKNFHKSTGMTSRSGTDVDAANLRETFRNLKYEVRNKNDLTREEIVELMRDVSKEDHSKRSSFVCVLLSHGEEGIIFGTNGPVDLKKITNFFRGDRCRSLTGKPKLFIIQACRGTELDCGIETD
T2 sequence (P42574 176-277 limits assumed): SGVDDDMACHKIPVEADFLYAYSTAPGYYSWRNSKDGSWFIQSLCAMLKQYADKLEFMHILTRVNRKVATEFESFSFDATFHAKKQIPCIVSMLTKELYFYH
The experiment in a line: Caspase 3 activity assay (Ac-DEVD-AMC). Type of test: biochemical. Conditions: 250 nM Ac-DEVD-AMC, 1.6 nM enzyme; compounds tested from 200 µM to 91 nM; unit inferred; read-out: Inhibition of cysteine protease activities: Casp3. Here is the method: Caspase 3 was diluted in Caspase 3 buffer (100 mM Hepes pH 7.5; 10% sucrose; 0.1% CHAPS). Compounds stocks (100 mM) were stored at -20°C in DMSO. Compounds were tested at different concentrations: from 200 µM to 91 nM. Reactions were performed as duplicates in Black LJL 96 well plates (HE microplates; Molecular Devices; 20 µl final reaction volume). The substrate concentration for caspase 3 specificity assay was 250 nM (Ac-DEVD-AMC; Promega). The concentration of the enzyme (Caspase 3) in specificity assays was 1.6 nM. The concentrations were determined in order to perform specificity assays under initial velocities at fixed substrate concentration. Compounds were pre-incubated with enzymes for 30 minutes at 25°C. Reactions were initiated by addition of substrate to the plates containing the enzymes (+/- compounds) diluted in assay buffer. Reactions were incubated for 60 minutes at 37°C. Reactions were stopped by adding acetic acid (100 mM final). Readings were performed on a Pherastar Fluorescent Reader (BMG). λ Emission 380 nm; λ Excitation = 460 nm. Data (mean values +/- standard deviation) were analyzed as % of control (no compound) and plotted as percentage versus the Log of the compound concentration using GraphPad (Prism). Data were fitted to a sigmoidal model (variable slope).

Molecules are shown by their SMILES.

As to `CC(=O)C1=C(O)C(=O)N(CCc2ccc(Cl)cc2)C1c1ccc(Br)cc1` (centres unmarked) [Example 25, 4-acetyl-5-(4-bromo-phenyl)-1-[2-(4-chloro-phenyl)-ethyl]-3-hydroxy-1,5-dihydro-pyrrol-2-one], the IC50 in test [1] and in test [2] was greater than 200 µM throughout.

Turning to `CC(=O)C1=C(O)C(=O)N(CCc2ccc(Br)cc2)C1c1ccc(Br)cc1` (centres unmarked) [Example 26, 4-acetyl-5-(4-bromo-phenyl)-1-[2-(4-bromo-phenyl)-ethyl]-3-hydroxy-1,5-dihydro-pyrrol-2-one], the IC50 in test [1] and in test [2] was greater than 200 µM each time.

Take `CC(=O)C1=C(O)C(=O)N(CCc2ccc(Cl)c(Cl)c2)C1c1ccc(Br)cc1` (centres unmarked) [Example 28, 4-acetyl-5-(4-bromo-phenyl)-1-[2-(3,4-dichloro-phenyl)-ethyl]-3-hydroxy-1,5-dihydro-pyrrol-2-one]: the IC50 in test [1] and in test [2] was greater than 200 µM throughout.

As to `COc1cccc(CCN2C(=O)C(O)=C(C(C)=O)C2c2ccc(Br)cc2)c1` (centres unmarked) [Example 30, 4-acetyl-5-(4-bromo-phenyl)-3-hydroxy-1-[2-(3-methoxyphenyl)-ethyl]-1,5-dihydro-pyrrol-2-one], the IC50 in test [1] and in test [2] was greater than 200 µM each time.

`COc1ccc(CCN2C(=O)C(O)=C(C(C)=O)C2c2ccc(Br)cc2)cc1` (centres unmarked) [Example 32, 4-acetyl-5-(4-bromo-phenyl)-3-hydroxy-1-[2-(4-methoxyphenyl)-ethyl]-1,5-dihydro-pyrrol-2-one]: the IC50 in test [1] and in test [2] was greater than 200 µM each time.

Turning to `CC(=O)C1=C(O)C(=O)N(CCc2ccc(F)cc2)C1c1ccc(Br)cc1` (centres unmarked) [Example 33, 4-acetyl-5-(4-bromo-phenyl)-3-hydroxy-1-[2-(4-fluorophenyl)-ethyl]-1,5-dihydro-pyrrol-2-one], the IC50 in test [1] and in test [2] was greater than 200 µM in each case.

As to `CCOc1ccc(CCN2C(=O)C(O)=C(C(C)=O)C2c2ccc(Br)cc2)cc1` (centres unmarked) [Example 34, 4-acetyl-5-(4-bromo-phenyl)-3-hydroxy-1-[2-(4-ethoxy-phenyl)-ethyl]-1,5-dihydro-pyrrol-2-one], the IC50 in test [1] and in test [2] was greater than 200 µM each time.

`CC(=O)C1=C(O)C(=O)N(CCc2ccccc2)C1c1ccc2c(c1)OCO2` (centres unmarked) [Example 37, 4-acetyl-5-benzo[1,3]dioxol-5-yl-3-hydroxy-1-phenethyl-1,5-dihydro-pyrrol-2-one]: the IC50 in test [1] and in test [2] was greater than 200 µM each time.

As to `CC(=O)C1=C(O)C(=O)N(CCc2ccccc2)C1c1ccc(Br)c(Br)c1` (centres unmarked) [Example 41, 4-acetyl-5-(3,4-dibromo-phenyl)-3-hydroxy-1-phenethyl-1,5-dihydro-pyrrol-2-one], the IC50 in test [1] and in test [2] was greater than 200 µM throughout.

On to `CC(=O)C1=C(O)C(=O)N(CCc2ccccc2)C1c1cccnc1Cl` (centres unmarked) [Example 42, 4-acetyl-5-(2-chloro-pyridin-3-yl)-3-hydroxy-1-phenethyl-1,5-dihydro-pyrrol-2-one], for which the IC50 in test [1] and in test [2] was greater than 200 µM each time.

For `CC(=O)C1=C(O)C(=O)N(CCc2ccc(Br)cc2)C1c1ccc(Cl)cc1` (centres unmarked) [Example 45, 4-Acetyl-5-(4-chlorophenyl)-1-[2-(4-bromophenyl)-ethyl]-3-hydroxy-1,5-dihydro-pyrrol-2-one], the IC50 in test [1] and in test [2] was greater than 200 µM throughout.

`CC(=O)C1=C(O)C(=O)N(CCc2ccc(Cl)cc2)C1c1ccc(Cl)cc1` (centres unmarked) [Example 46, 4-Acetyl-5-(4-chlorophenyl)-1-[2-(4-chlorophenyl)-ethyl]-3-hydroxy-1,5-dihydro-pyrrol-2-one]: the IC50 in test [1] and in test [2] was greater than 200 µM in each case.

In the case of `CC(=O)C1=C(O)C(=O)N(CCc2ccc(Cl)cc2Cl)C1c1ccc(Br)cc1` (centres unmarked) [Example 47, 4-Acetyl-5-(4-bromophenyl)-1-[2-(2,4-dichlorophenyl)-ethyl]-3-hydroxy-1,5-dihydro-pyrrol-2-one], the IC50 in test [1] and in test [2] was greater than 200 µM each time.
